# Experimental data as given in patent publication US8592359B2 (priority 2010, dated 2013).
# System: amylase Stainzyme® 12,0 1
# Test: Residual amylolytic activity after storage in a liquid washing agent (starch / dinitrosalicylic acid)
# Assay type: biochemical
# Details: 1 wt % stabilizer, 4 weeks at 30° C., initial activity 100%
# Source text: A liquid washing agent of the following composition serves as a baseline washing agent formulation (all indications in percent by weight): 0.3 to 0.5% xanthan, 0.2 to 0.4% antifoaming agent, 6 to 7% glycerol, 0.3 to 0.5% ethanol, 4 to 7% FAEOS (fatty alcohol ether sulfate), 24 to 28% nonionic surfactants, 1 to 2% sodium citrate (dihydrate), 2 to 4% soda, 14 to 16% coconut fatty acids, 0.5% HEDP (1-hydroxyethane-(1,1-diphosphonic acid)), 0 to 0.4% PVP (polyvinylpyrrolidone), 0 to 0.05% optical brightener, 0 to 0.001% dye, remainder demineralized water.
# The monosaccharide glycerate glucosyl glycerate was incorporated, as the component stabilizing the hydrolytic enzyme, into the baseline washing agent formulation according to Example 2 (see Table 2, indications in this regard in wt %). […] The amylase used was the Stainzyme® 12,0 1 product of the company Novozymes A/S. The amylase was used in the washing agent either alone or in combination with the protease of Example 2 (utilization quantity: 1.0 wt % amylase and/or 1.0 wt % protease, respectively active substance).
# After storage, the respective residual amylolytic activity was determined by incubating the samples under defined reaction conditions (tris-maleate buffer, pH 6.5, 50° C., 15 min) with 0.67% starch (FLUKA no. 85642, from potatoes, soluble, pretreated per Zulkowsky (treated with glycerol at 190° C.)). […]
smiles,measurement,setting,value
OB(O)O [boric acid],residual amylolytic activity after storage,with protease (1.0 wt %),92%
same,residual amylolytic activity after storage,without protease,97%
